In publication PMC11035592, “Intranasal oxytocin suppresses seizure-like behaviors in a mouse model of NGLY1 deficiency” (Communications Biology, 2024):

Experiments:
[1] = tested on: patients with NGLY1 deficiency; details: cited from earlier work
Description: For epileptic seizures in patients with NGLY1 deficiency, some approved drugs, including levetiracetam, valproate, lamotrigine, and clobazam, have been tested; however, their efficacies were limited.

[2] = Oxytocin levels in plasma, brain and spinal cord 5 min after intranasal oxytocin (enzyme immunoassay); format: in vivo, mouse; design: Oxytocin level, Thalamus, Mean / Oxytocin level, Hypothalamus, Mean / Oxytocin level, Cortex, Mean / Oxytocin level, Spinal cord, Mean / Oxytocin level, Striatum, Mean / Oxytocin level, Hippocampus, Mean: unit not given here; details: for Oxytocin level, Cortex, Mean / Oxytocin level, Hippocampus, Mean / Oxytocin level, Hypothalamus, Mean / Oxytocin level, Plasma, Mean / Oxytocin level, Spinal cord, Mean / Oxytocin level, Striatum, Mean / Oxytocin level, Thalamus, Mean: mean of n = 3; for Oxytocin level, Cortex, % of Control / Oxytocin level, Hippocampus, % of Control / Oxytocin level, Hypothalamus, % of Control / Oxytocin level, Spinal cord, % of Control / Oxytocin level, Striatum, % of Control / Oxytocin level, Thalamus, % of Control: mean, figure corresponds to % of the plasma 0 mg/kg mean; for Oxytocin level, Plasma, % of Control: mean as % of 0 mg/kg plasma mean
Description: Delivery of intranasal oxytocin to the central nervous system was confirmed using 17 to 18-week-old female Ngly1^−/− mice.
Fig. 5 Oxytocin levels in the plasma, brain, and spinal cord of Ngly1^−/− mice after intranasal administration of oxytocin. Oxytocin (10, 100 mg/kg) or saline was intranasally administered to female Ngly1^−/− mice (17 or 18-week-old) under anesthesia with 2.5% isoflurane (a). b Plasma, c hippocampus, d striatum, e cerebral cortex, f spinal cord, g thalamus, and h hypothalamus were collected 5 min after the single administration. Oxytocin levels were measured using enzyme immunoassay. Data represent mean + standard deviation and individual values (N = 3). […]
Oxytocin peptide (CAS number 50-56-6) was purchased from AA Blocks (San Diego, CA, USA) and dissolved in saline at a maximum concentration of 200 mg/mL. Female Ngly1^−/− mice were anesthetized with 2.5% isoflurane and intranasally administered with oxytocin using a manual pipette at a volume of 0.5 ml/kg. Oxytocin solutions were prepared in Protein LoBind Tubes (Eppendorf, Hamburg, Germany) just before the intranasal administration.

[3] = tested on: generally healthy older men (55–95 years old); details: chronic intranasal administration, twice daily for four weeks; cited from earlier work
Description: (§1) The safety of single or chronic intranasal oxytocin administration has been investigated in several clinical studies. […] Based on these clinical studies, oxytocin has the potential to be administered to patients with NG ...

[4] = tested on: school-age children (8–12 years old); details: 90 min and 24 h after a single intranasal administration; cited from earlier work
Description: as §1

[5] = female Ngly1−/− mice, 17 to 18-week-old, 10 or 100 mg/kg single intranasal, 5 min after administration, enzyme immunoassay, N = 3, vs saline

Structure (SMILES): CN1C(=O)CC(=O)N(c2ccccc2)c2cc(Cl)ccc21 [clobazam]
- efficacy for epileptic seizures [1]: limited

Structure (SMILES): Nc1nnc(-c2cccc(Cl)c2Cl)c(N)n1 [lamotrigine]
- efficacy for epileptic seizures [1]: limited

Structure (SMILES): CC[C@@H](C(N)=O)N1CCCC1=O [levetiracetam]
- efficacy for epileptic seizures [1]: limited

Structure (SMILES): CC[C@H](C)[C@@H]1NC(=O)[C@H](Cc2ccc(O)cc2)NC(=O)[C@@H](N)CSSC[C@@H](C(=O)N2CCC[C@H]2C(=O)N[C@@H](CC(C)C)C(=O)NCC(N)=O)NC(=O)[C@H](CC(N)=O)NC(=O)[C@H](CCC(N)=O)NC1=O [oxytocin, Oxytocin]
- Oxytocin level, Cortex, Mean ([2]; 10 mg/kg intranasal): 2.20
- Oxytocin level, Cortex, % of Control ([2]; 10 mg/kg intranasal): 0.776%
- Oxytocin level, Cortex, Mean ([2]; 100 mg/kg intranasal): 15.07
- Oxytocin level, Cortex, % of Control ([2]; 100 mg/kg intranasal): 5.31%
- Oxytocin level, Hippocampus, Mean ([2]; 10 mg/kg intranasal): 8.47
- Oxytocin level, Hippocampus, % of Control ([2]; 10 mg/kg intranasal): 3%
- Oxytocin level, Hippocampus, Mean ([2]; 100 mg/kg intranasal): 23.47
- Oxytocin level, Hippocampus, % of Control ([2]; 100 mg/kg intranasal): 8%
- Oxytocin level, Hypothalamus, Mean ([2]; 10 mg/kg intranasal): 87.40
- Oxytocin level, Hypothalamus, % of Control ([2]; 10 mg/kg intranasal): 31%
- Oxytocin level, Hypothalamus, Mean ([2]; 100 mg/kg intranasal): 132.73
- Oxytocin level, Hypothalamus, % of Control ([2]; 100 mg/kg intranasal): 47%
- Oxytocin level, Plasma, % of Control ([2]; 10 mg/kg intranasal): 4479%
- Oxytocin level, Plasma, Mean ([2]; 10 mg/kg intranasal): 12705.67
- Oxytocin level, Plasma, % of Control ([2]; 100 mg/kg intranasal): 26235%
- Oxytocin level, Plasma, Mean ([2]; 100 mg/kg intranasal): 74420.67
- Oxytocin level, Spinal cord, Mean ([2]; 10 mg/kg intranasal): 2.17
- Oxytocin level, Spinal cord, % of Control ([2]; 10 mg/kg intranasal): 0.764%
- Oxytocin level, Spinal cord, Mean ([2]; 100 mg/kg intranasal): 4.10
- Oxytocin level, Spinal cord, % of Control ([2]; 100 mg/kg intranasal): 1.45%
- Oxytocin level, Striatum, Mean ([2]; 10 mg/kg intranasal): 2.60
- Oxytocin level, Striatum, % of Control ([2]; 10 mg/kg intranasal): 0.917%
- Oxytocin level, Striatum, Mean ([2]; 100 mg/kg intranasal): 24.23
- Oxytocin level, Striatum, % of Control ([2]; 100 mg/kg intranasal): 8.54%
- Oxytocin level, Thalamus, Mean ([2]; 10 mg/kg intranasal): 3.40
- Oxytocin level, Thalamus, % of Control ([2]; 10 mg/kg intranasal): 1.2%
- Oxytocin level, Thalamus, Mean ([2]; 100 mg/kg intranasal): 42.47
- Oxytocin level, Thalamus, % of Control ([2]; 100 mg/kg intranasal): 15%
- increasing trend of oxytocin level in hypothalamus [2, 5]: not observed
- oxytocin level in cerebral cortex [2, 5]: increased
- oxytocin level in hippocampus [2, 5]: increased
- oxytocin level in plasma [2, 5]: increased
- oxytocin level in spinal cord [2, 5]: increased
- oxytocin level in striatum [2, 5]: increased
- oxytocin level in thalamus [2, 5]: increasing trend
- tolerability [3]: well-tolerated
- side-effects [4]: no side-effect

Structure (SMILES): CCCC(CCC)C(=O)O [valproate]
- efficacy for epileptic seizures [1]: limited
